Biological target: Lysine--tRNA ligase (Plasmodium falciparum (isolate 3D7), UniProt Q8IDJ8)
Experiment: Pf-KRS-1 (Lysyl-RNA Synthetase-1, KRS-1, cytosolic KRS) from Plasmodium falciparum. Inhibitor assay, 384 well plate, luminescence read.
Format: functional

Chain of Lysine--tRNA ligase (Q8IDJ8 whole entry): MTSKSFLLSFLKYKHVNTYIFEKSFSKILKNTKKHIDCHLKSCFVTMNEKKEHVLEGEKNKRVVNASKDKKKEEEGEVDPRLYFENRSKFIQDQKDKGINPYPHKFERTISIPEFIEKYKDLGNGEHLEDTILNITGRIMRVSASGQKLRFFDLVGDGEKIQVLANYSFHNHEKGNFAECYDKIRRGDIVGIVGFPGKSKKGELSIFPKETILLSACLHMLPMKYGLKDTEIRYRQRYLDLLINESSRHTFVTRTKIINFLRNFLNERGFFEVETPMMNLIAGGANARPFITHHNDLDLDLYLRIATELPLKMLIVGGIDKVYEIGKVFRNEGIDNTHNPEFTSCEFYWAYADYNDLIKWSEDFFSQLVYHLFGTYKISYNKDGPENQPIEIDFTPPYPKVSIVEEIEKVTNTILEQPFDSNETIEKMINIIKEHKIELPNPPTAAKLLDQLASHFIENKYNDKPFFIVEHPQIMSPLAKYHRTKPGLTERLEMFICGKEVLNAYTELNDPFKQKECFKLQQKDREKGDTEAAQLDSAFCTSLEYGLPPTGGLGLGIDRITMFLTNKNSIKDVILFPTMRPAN

Compound | IC50
Cc1nc(N(C)CCCc2nccn2C)c2c(C)nn(C)c2n1 | > 50.1 µM
COc1c(F)cc(-c2cn(CCn3c(C)cc(C)nc3=O)nn2)cc1Cl | > 50.1 µM
CC(C)(C)c1cc(CN2CCOC(CCc3ccccc3)C2)n[nH]1 (stereo unspecified) | > 50.1 µM
Cc1cnn(CCCN2C(=O)CCc3ccccc32)c1 | > 50.1 µM
O=C(NCCc1ccco1)Nc1cc(C(F)(F)F)c[nH]c1=O | > 50.1 µM
O=C(c1ccc2c(c1)CCCC2)N1CCCC(n2cncn2)C1 (stereo unspecified) | > 50.1 µM
O=C(NCc1csc(Br)c1)c1cnccn1 | > 50.1 µM
CCc1n[nH]c(C2CN(Cc3nc(C4CC4)no3)CCO2)n1 (stereo unspecified) | > 50.1 µM
c1cnnc(N2CCCC(NCc3ccncc3)C2)c1 (stereo unspecified) | > 50.1 µM
COc1c(C)cnc(CN(C)C(=O)c2cccnc2N(C)C)c1C | > 50.1 µM
Cc1ccc(CN2CCCN(Cc3cscn3)CC2)cc1 | > 50.1 µM
COc1cccc(COCC(=O)N2CCCC(n3cccn3)C2)c1 (stereo unspecified) | > 50.1 µM
O=C(COCCc1ccccc1)N1CCCC(n2cccn2)C1 (stereo unspecified) | > 50.1 µM
N#CCc1ccc(OCC(=O)N2CCCC(n3cccn3)C2)cc1 (stereo unspecified) | > 50.1 µM
Cc1cnn(CC2CCCN2C(=O)c2cccc3c2OCO3)c1 (stereo unspecified) | > 50.1 µM
Cc1cccc2c1CCN(c1cc(N3CCCC3CO)ncn1)C2 (stereo unspecified) | > 50.1 µM
FC(F)(F)c1ccc(CN2CCN(Cc3cscn3)CC2)cc1 | > 50.1 µM
COc1ccc(OC)c(C(=O)N(C)Cc2ncc(C)c(OC)c2C)c1 | > 50.1 µM
Cc1ccn2ncc(C(=O)N3CCCC(n4nc(C)nc4C)C3)c2n1 (stereo unspecified) | > 50.1 µM
Cc1nc(CN2CCCC(N(C)Cc3nc(CC(C)C)no3)C2)no1 (stereo unspecified) | > 50.1 µM
CC(C)c1nccn1C1CCCN(C(=O)c2ccc3c(c2)COC3)C1 (stereo unspecified) | > 50.1 µM
Cc1nc(CN(C)C2CCN(Cc3c(C)noc3C)C2)no1 (stereo unspecified) | > 50.1 µM
Cc1csc(CNC(=O)N(C)Cc2ccc3c(c2)OCCO3)n1 | > 50.1 µM
CCN(Cc1ccc2c(c1)OCO2)C(=O)NCc1nc(C)cs1 | > 50.1 µM
Cc1csc(CNC(=O)NCc2ccc3c(c2)OCCO3)n1 | > 50.1 µM
CCOc1ccc(CC(CNC(=O)c2ccoc2C)C(N)=O)cc1 (stereo unspecified) | > 50.1 µM

Compound | IC50
CCOc1ccc(CC(CNC(=O)c2ccc(C)o2)C(N)=O)cc1 (stereo unspecified) | > 50.1 µM
CC(C)c1nccn1C1CCCN(C(=O)c2cccc3[nH]ncc23)C1 (stereo unspecified) | > 50.1 µM
CCc1nc(C2CCCN2Cc2noc(Cc3ccccc3)n2)no1 (stereo unspecified) | > 50.1 µM
Cc1noc(C2CCCN(C(=O)c3cc(Cl)ccc3F)C2)n1 (stereo unspecified) | > 50.1 µM
O=C(c1ccccn1)N1CCCN(Cc2nnc(C3CC3)o2)CC1 | > 50.1 µM
CCc1nc(CN2CCOC(CN(CC)c3cccnn3)C2)cs1 (stereo unspecified) | > 50.1 µM
Cc1nnc(N2CCC(CCN(C)C)CC2)c(C#N)c1C | > 50.1 µM
Cc1ncc(CN2CCOC(CN(C)c3cccnn3)C2)s1 (stereo unspecified) | > 50.1 µM
CSC(C)C(=O)NCc1ccc(-n2cncn2)nc1 (stereo unspecified) | > 50.1 µM
CCc1nnsc1C(=O)N1CCCN(Cc2ccccc2)CC1 | > 50.1 µM
CNS(=O)(=O)c1ccc(CNC(=O)NCC2CCC2)cc1 | > 50.1 µM
O=C(NCCc1ccccn1)C1=NN(c2ccccc2)C(=O)CN1 | > 50.1 µM
Cc1cc(CN(C)C(=O)c2cccc(N3CCCC3=O)c2)no1 | > 50.1 µM
Cc1ccc(C2CCCN2Cc2nc3c(cnn3C)c(=O)[nH]2)cc1C (stereo unspecified) | > 50.1 µM
Cn1ncc2c(=O)[nH]c(CN3CCCC3c3cccs3)nc21 (stereo unspecified) | > 50.1 µM
CN(C)c1cc2c(nn1)CCN(C(=O)C1Cc3ccccc3S1)C2 (stereo unspecified) | > 50.1 µM
Cc1cnn(CCNCC(O)COc2ccc(Cl)cc2)c1 (stereo unspecified) | > 50.1 µM
Clc1snnc1CN1CCCCC1Cn1cncn1 (stereo unspecified) | > 50.1 µM
CCCOc1ccc(CNC(=O)N2CCC(C(N)=O)C2)cc1 (stereo unspecified) | > 50.1 µM
CS(=O)(=O)c1ccc(CNC(=O)N2CCC(C(N)=O)C2)cc1 (stereo unspecified) | > 50.1 µM
CCn1ncc2c1CCCC2NCc1ccc(OC)c(C)c1 (stereo unspecified) | > 50.1 µM
COc1cccc(-n2c(C)cc(C(=O)NS(C)(=O)=O)c2C)c1 | > 50.1 µM
CCOc1cccc2c1OCC(C(=O)NS(=O)(=O)Cc1ccccc1)=C2 | > 50.1 µM
O=C(c1cnc(-c2cccs2)s1)N1CCCC(n2cccn2)C1 (stereo unspecified) | > 50.1 µM
O=C(NCc1csc(Br)c1)c1ccncc1 | > 50.1 µM
